Laboratory results: paper PMC9610702, “Synthesis, Characterization, and Biological Evaluation of Tetrahydropyrimidines: Dual-Activity and Mechanism of Action” (Pharmaceutics, 2022)
≈ marks a conversion by molar mass, not a printed value. Read-outs that look alike come from different tables or passages of the source.

Legend:
Bacillus subtilis = assay: antibacterial MIC, broth tube dilution; assay type: cell-based
From the text: (§1) In this paper, the synthesis, characterization, and biological evaluation of the novel tetrahydropyrimidines—THPMs are described. THPMs are well-known for wide pharmacological activities such as antimicrobial, anticancer, antiviral, etc. This research includes obtained results of in vitro antimicrobial, anticancer, and α-glucosidase inhibitory activities of the eleven novel THPMs. An antibiotic assessment was done against five bacteria (two Gram-positive and three Gram-negative) and five fungi by determining the minimal inhibitory concentration (MIC), using the broth tube dilution method. […] The cytotoxic activity was performed on the tumor cell lines (HeLa, K562, and MDA-MB-231) and normal cells (MRC-5). The best antitumor activity was shown by compounds 4b and 4k against HeLa cell lines.
(§2) All materials and methods used for biological examination (antibacterial, antifungal, anticancer, and α-glucosidase inhibitory activities) and crystal structure determination are presented in the Supplementary Materials, File S1.

Escherichia coli = assay: antibacterial MIC, broth tube dilution; assay type: cell-based
From the text: as §1, §2

Klebsiella oxytoca = assay: antibacterial MIC, broth tube dilution; assay type: cell-based
From the text: as §1, §2

Proteus mirabilis = assay: antibacterial MIC, broth tube dilution; assay type: cell-based; conditions: ND = not detected
From the text: as §1, §2

Staphylococcus aureus = assay: antibacterial MIC, broth tube dilution; assay type: cell-based
From the text: as §1, §2

Aspergillus flavus = assay: antifungal MIC, broth tube dilution; assay type: cell-based
From the text: as §1, §2

Aspergillus niger = assay: antifungal MIC, broth tube dilution; assay type: cell-based
From the text: as §1, §2

Mucor mucedo = assay: antifungal MIC, broth tube dilution; assay type: cell-based
From the text: as §1, §2

Penicillium italicum = assay: antifungal MIC, broth tube dilution; assay type: cell-based
From the text: as §1, §2

[1] = test system: Trichophyton mentagrophytes; assay: antifungal MIC, broth tube dilution; assay type: cell-based
From the text: as §1, §2

HeLa cells [2] = assay: cytotoxic activity; assay type: cell-based; conditions: for IC50: Homo sapiens, read-out: IC50 Average ± SD; for IC50 / IC50 Average ± SD: HeLa, three independent experiments in triplicate
From the text: (§3) All materials and methods used for biological examination (antibacterial, antifungal, anticancer, and α-glucosidase inhibitory activities) and crystal structure determination are presented in the Supplementary Materials, File S1. The cytotoxic activity of eleven novel compounds was examined against HeLa, K562, MDA-MB-231, and MRC-5. The tested compounds exerted concentration-dependent cytotoxic effects on cell lines. […] Compared to compound 4j, 4k has a methyl group in para position of benzoyl fragment; so, probably this structural difference is responsible for better activity and selectivity of compound 4k on HeLa (43.63 ± 1.49 µM) and K562 (39.11 ± 2.90 µM).

K562 cells = assay: cytotoxic activity; assay type: cell-based; conditions: Homo sapiens; K562; three independent experiments in triplicate; read-out: IC50 Average ± SD
From the text: as §3

MDA-MB-231 cells = assay: cytotoxic activity; assay type: cell-based; conditions: Homo sapiens, three independent experiments in triplicate, read-out: IC50 Average ± SD
From the text: as §3

[3] = test system: normal human lung fibroblasts MRC-5; assay: cytotoxic activity on normal cells; assay type: cell-based; conditions: MRC5, MRC-5 normal fibroblasts, three independent experiments in triplicate, read-out: IC50 Average ± SD
From the text: as §2
The cytotoxic activity of eleven novel compounds was examined against HeLa, K562, MDA-MB-231, and MRC-5.
The cytotoxic activity was examined against HeLa, K562, MDA-MB-231 cells, and normal human lung fibroblasts MRC-5. […] In addition, the effects of the 4k and 4b on the cell cycle were examined.

α-glucosidase = α-glucosidase inhibitory activity; assay type: biochemical; conditions: average ± SD of two experiments
From the text: as §2

HeLa cells [4] = assay: cell-cycle phase distribution; assay type: cell-based; conditions: 24 h, IC50 and 2IC50 concentrations, vs untreated control
From the text: as §2
The observed changes in the amounts of treated cells within subG1 and G1 phases of the cell cycle were accompanied with decreased percentages of cells within the S and G2/M phases.
The data shown represent the average ± standard deviation of two independent experiments.

HeLa cells [5] = assay: morphological evaluation of cell death mode, acridine orange/ethidium bromide staining; assay type: cell-based; conditions: 24 h, 2IC50 concentration
Protocol: as §2
The photomicrographs of control HeLa cells and HeLa cells incubated for 24 h with 2IC50 concentrations of the compounds 4b and 4k and stained with a mixture of acridine orange/ethidium bromide are presented in Figure 5. […] Orange-red-stained shrunken cells with condensed chromatin in later stages of apoptosis were detected as well. […] The proapoptotic effect of compound 4b was to some extent stronger when comparing with effect of compound 4k.
Figure 5 Photomicrographs of acridine orange/ethidium bromide-stained control HeLa cells and HeLa cells incubated with 2IC50 concentrations of compounds 4b and 4k during 24 h (magnification 20×). Representative photomicrographs are shown.

| MIC (Bacillus subtilis) [µg/mL] | MIC (Escherichia coli) [µg/mL] | MIC (Klebsiella oxytoca) [µg/mL] | MIC (Proteus mirabilis; read-out: MIC) [µg/mL] | MIC (Staphylococcus aureus) [µg/mL] | MIC (Aspergillus flavus) [µg/mL] | MIC (Aspergillus niger) [µg/mL] | MIC (Mucor mucedo) [µg/mL] | MIC (Penicillium italicum) [µg/mL] | MIC [1] [µg/mL] | IC50 (α-glucosidase) [µM] | Compound | IC50 (HeLa cells [2]) [µM] | IC50 (K562 cells) [µM] | IC50 (MDA-MB-231 cells) [µM] | IC50 [3] [µM] | IC50 Average ± SD (HeLa cells [2]) | further results |
| --- | --- | --- | --- | --- | --- | --- | --- | --- | --- | --- | --- | --- | --- | --- | --- | --- | --- |
| 3250 (≈ 7.94 mM) | 1620 (≈ 3.96 mM) | 1620 (≈ 3.96 mM) | 810 (≈ 1.98 mM) | 810 (≈ 1.98 mM) | 1620 (≈ 3.96 mM) | 1620 (≈ 3.96 mM) | 1620 (≈ 3.96 mM) | 1620 (≈ 3.96 mM) | 400 (≈ 0.977 mM) | 1120 ± 20.6 | COC(=O)C1=C(C)N(C)C(=S)NC1c1cc(OC)c(OC(C)=O)c([N+](=O)[O-])c1 (stereo not drawn) [4d] | > 200 | 165 ± 8.5 | > 200 | 193 ± 10.3 | very low cytotoxicity | – |
| 3250 (≈ 8.59 mM) | 1620 (≈ 4.28 mM) | 3250 (≈ 8.59 mM) | – | 3250 (≈ 8.59 mM) | 1620 (≈ 4.28 mM) | 1620 (≈ 4.28 mM) | 1620 (≈ 4.28 mM) | 1620 (≈ 4.28 mM) | 200 (≈ 0.528 mM) | 674.8 ± 5.65 | CCC(=O)Oc1ccc(C2NC(=S)N(C)C(C)=C2C(=O)OC)cc1OC (stereo not drawn) [4e] | 197 ± 3.93 | 149 ± 5.74 | > 200 | 128 ± 3.2 | – | MIC (Proteus mirabilis): no inhibitory effect |
| 3250 (≈ 8.32 mM) | 3250 (≈ 8.32 mM) | 3250 (≈ 8.32 mM) | 1620 (≈ 4.15 mM) | 3250 (≈ 8.32 mM) | 1620 (≈ 4.15 mM) | 810 (≈ 2.07 mM) | 1620 (≈ 4.15 mM) | 1620 (≈ 4.15 mM) | 200 (≈ 0.512 mM) | 767.9 ± 5.91 | COC(=O)C1=C(C)N(C)C(=S)NC1c1ccc(OC(=O)C2CC2)c(OC)c1 (stereo not drawn) [4f] | 135 ± 9.32 | 123 ± 8.52 | 161 ± 9.69 | 196 ± 5.54 | – | – |

More lines, now with the values behind:

| Compound | MIC (Bacillus subtilis) [µg/mL] | MIC (Escherichia coli) [µg/mL] | MIC (Klebsiella oxytoca) [µg/mL] | MIC (Proteus mirabilis; read-out: MIC) [µg/mL] | MIC (Staphylococcus aureus) [µg/mL] | MIC (Aspergillus flavus) [µg/mL] | MIC (Aspergillus niger) [µg/mL] | MIC (Mucor mucedo) [µg/mL] | MIC (Penicillium italicum) [µg/mL] | MIC [1] [µg/mL] | IC50 (α-glucosidase) [µM] | IC50 (HeLa cells [2]) [µM] | IC50 (K562 cells) [µM] | IC50 (MDA-MB-231 cells) [µM] | IC50 [3] [µM] | IC50 Average ± SD (HeLa cells [2]) | further results |
| --- | --- | --- | --- | --- | --- | --- | --- | --- | --- | --- | --- | --- | --- | --- | --- | --- | --- |
| COC(=O)C1=C(C)N(C)C(=S)NC1c1cc(Br)c(O)c(OC)c1 (stereo not drawn) [4a] | 3250 (≈ 8.1 mM) | 1620 (≈ 4.04 mM) | 1620 (≈ 4.04 mM) | 810 (≈ 2.02 mM) | 1620 (≈ 4.04 mM) | 1620 (≈ 4.04 mM) | 1620 (≈ 4.04 mM) | 1620 (≈ 4.04 mM) | 1620 (≈ 4.04 mM) | 400 (≈ 0.997 mM) | 313 ± 7.73 | 97.4 ± 5.4 | 79 ± 7.49 | 144 ± 8.29 | 187 ± 4.66 | – | – |
| COC(=O)C1=C(C)N(C)C(=S)NC1c1cc(I)c(O)c(OC)c1 (stereo not drawn) [4b] | 3250 (≈ 7.25 mM) | 1620 (≈ 3.61 mM) | 1620 (≈ 3.61 mM) | 810 (≈ 1.81 mM) | 1620 (≈ 3.61 mM) | 1620 (≈ 3.61 mM) | 810 (≈ 1.81 mM) | 1620 (≈ 3.61 mM) | 1620 (≈ 3.61 mM) | 400 (≈ 0.892 mM) | 292 ± 6.67 | 52.6 ± 4.45 | 76.8 ± 5.01 | 116 ± 8.71 | 112 ± 10.8 | – | selectivity coefficient (HeLa cells [2]; HeLa compared with MRC-5 cells): 2.13; percentage of HeLa cells in the G1 phase (HeLa cells [4]): pronounced increase; percentage of dead cells within subG1 phase (HeLa cells [4]): increase; percentages of cells within the S and G2/M phases (HeLa cells [4]): decreased; cell death mode (apoptosis) (HeLa cells [5]): induce apoptotic cell death |
| COC(=O)C1=C(C)N(C)C(=S)NC1c1cc(OC)c(O)c([N+](=O)[O-])c1 (stereo not drawn) [4c] | 3250 (≈ 8.85 mM) | 1620 (≈ 4.41 mM) | 1620 (≈ 4.41 mM) | 1620 (≈ 4.41 mM) | 1620 (≈ 4.41 mM) | 400 (≈ 1.09 mM) | 810 (≈ 2.2 mM) | 1620 (≈ 4.41 mM) | 1620 (≈ 4.41 mM) | 400 (≈ 1.09 mM) | – | > 200 | 180 ± 9.15 | > 200 | 196 ± 5.89 | very low cytotoxicity | – |
